Reference: paper PMC9974930 (Journal of medicinal chemistry, 2023)

biological target: T1, recombinant human sEH (HsEH) (Homo sapiens, UniProt P34913); test: biochemical; conditions: LLE = pIC50-cLogP
T1 sequence (P34913 1-555): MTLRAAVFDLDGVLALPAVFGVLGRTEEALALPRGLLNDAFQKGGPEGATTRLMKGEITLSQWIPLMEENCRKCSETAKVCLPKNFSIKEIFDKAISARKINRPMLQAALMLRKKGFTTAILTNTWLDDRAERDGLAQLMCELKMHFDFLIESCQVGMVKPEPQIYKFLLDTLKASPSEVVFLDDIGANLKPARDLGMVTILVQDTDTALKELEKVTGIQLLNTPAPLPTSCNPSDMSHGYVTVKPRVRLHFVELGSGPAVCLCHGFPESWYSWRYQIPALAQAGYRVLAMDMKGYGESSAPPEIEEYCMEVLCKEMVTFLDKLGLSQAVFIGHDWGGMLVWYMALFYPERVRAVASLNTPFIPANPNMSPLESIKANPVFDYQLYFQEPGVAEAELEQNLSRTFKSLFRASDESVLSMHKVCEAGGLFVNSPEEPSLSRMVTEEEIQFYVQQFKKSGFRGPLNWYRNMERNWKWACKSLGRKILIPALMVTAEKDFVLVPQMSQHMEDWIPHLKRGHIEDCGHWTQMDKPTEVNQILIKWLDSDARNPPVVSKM

| Compound | LLE (ligand lipophilicity efficiency) |
| --- | --- |
| C=CC(=O)N1CCCN(C(=O)C2CCCN(Cc3ccc(NC(=O)N[C@@]45C[C@@H]6C[C@@](C)(C[C@@](C)(C6)C4)C5)c(F)c3)C2)CC1 (stereo partly drawn) [G3, 1-(4-((3-(4-acryloyl-1,4-Diazepane-1-carbonyl)piperidin-1-yl)methyl)-2-fluorophenyl) −3-((1r,3R,5S,7r)-3,5-dimethyladamantan-1-yl)urea] | 5.598 |
| C[C@]12C[C@@H]3C[C@](C)(C1)C[C@@](NC(=O)Nc1ccc(CN4CCCC(C(=O)O)C4)cc1F)(C3)C2 (stereo partly drawn) [D, 1-(4-(3-((1r,3R,5S,7r)-3,5-Dimethyladamantan-1-yl)ureido)-3-fluorobenzyl) piperidine-3-carboxylic acid] | 7.656 |
| CCC(=O)N1CCCN(C(=O)C2CCCN(C(=O)c3ccc(NC(=O)N[C@@]45C[C@@H]6C[C@@](C)(C[C@@](C)(C6)C4)C5)c(F)c3)C2)CC1 (stereo partly drawn) [F2, 1-((1r,3R,5S,7r)-3,5-Dimethyladamantan-1-yl)-3-(2-fluoro-4-(3-(4-propionyl-1,4-diazepane-1-carbonyl)piperidine-1-carbonyl)phenyl)urea] | 6.164 |
| C[C@]12C[C@@H]3C[C@](C)(C1)C[C@@](NC(=O)Nc1ccc(CN4CCC(C(=O)NC(CO)CO)CC4)cc1F)(C3)C2 [E3, N-(1,3-Dihydroxypropan-2-yl)-1-(4-(3-((1r,7r)-3,5-dimethyladamantan-1-yl)ureido)-3-fluorobenzyl)piperidine-4-carboxamide] | 5.090 |
| C[C@]12C[C@@H]3C[C@](C)(C1)C[C@@](NC(=O)Nc1ccc(C(=O)NC4CCC(C(=O)NCCO)CC4)cc1F)(C3)C2 (stereo partly drawn) [C3, 4-(3-((1r,3R,5S,7r)-3,5-Dimethyladamantan-1-yl)ureido)-3-fluoro-N-(4-((2-hydroxyethyl)carbamoyl)cyclohexyl)benzamide] | 6.100 |
| CC(C)(C)OC(=O)N1CCN(CCNC(=O)C2CCC(NC(=O)c3ccc(NC(=O)N[C@@]45C[C@@H]6C[C@@](C)(C[C@@](C)(C6)C4)C5)c(F)c3)CC2)CC1 (stereo partly drawn) [C1, Tert-butyl-4-(2-(4-(4-(3-((1r,3R,5S,7r)-3,5-dimethyladamantan-1-yl)ureido)-3-fluorobenzamido)cyclohexane-1-carboxamido)ethyl)piperazine-1-carboxylate] | 2.272 |
| C[C@]12C[C@@H]3C[C@](C)(C1)C[C@@](NC(=O)Nc1ccc(CN4CCC(C(N)=O)CC4)cc1F)(C3)C2 [E1, 1-(4-(3-((1r,7r)-3,5-Dimethyladamantan-1-yl)ureido)-3-fluorobenzyl)piperidine-4-carboxamide] | 5.557 |
| C[C@]12C[C@@H]3C[C@](C)(C1)C[C@@](NC(=O)Nc1ccc(C(=O)NC4CCC(C(=O)N(CCO)CCO)CC4)cc1F)(C3)C2 (stereo partly drawn) [C5, N-(4-(Bis(2-hydroxyethyl)carbamoyl)cyclohexyl)-4-(3-((1r,3R,5S,7r)-3,5-dimethyladamantan-1-yl)ureido)-3-fluorobenzamide] | 5.869 |
| C[C@]12C[C@@H]3C[C@](C)(C1)C[C@@](NC(=O)Nc1ccc(C(=O)NC4CCC(C(=O)N5CCC(CCO)CC5)CC4)cc1F)(C3)C2 (stereo partly drawn) [C2, 4-(3-((1r,3R,5S,7r)-3,5-Dimethyladamantan-1-yl)ureido)-3-fluoro-N-(4-(4-(2-hydroxyethyl)piperidine-1-carbonyl)cyclohexyl)benzamide] | 3.655 |
| CC(O)CNC(=O)C1CCC(NC(=O)c2ccc(NC(=O)N[C@@]34C[C@@H]5C[C@@](C)(C[C@@](C)(C5)C3)C4)c(F)c2)CC1 (stereo partly drawn) [C4, 4-(3-((1r,3R,5S,7r)-3,5-Dimethyladamantan-1-yl)ureido)-3-fluoro-N-(4-((2-hydroxypropyl)carbamoyl)cyclohexyl)benzamide] | 5.438 |
| C=C(C)C(=O)N1CCCN(C(=O)C2CCCN(Cc3ccc(NC(=O)N[C@@]45C[C@@H]6C[C@@](C)(C[C@@](C)(C6)C4)C5)c(F)c3)C2)CC1 (stereo partly drawn) [G4, 1-((1r,3R,5S,7r)-3,5-Dimethyladamantan-1-yl)-3-(2-fluoro-4-((3-(4-methacryloyl-1,4-diazepane-1-carbonyl)piperidin-1-yl)methyl)phenyl)urea] | 4.821 |
| C[C@]12C[C@@H]3C[C@](C)(C1)C[C@@](NC(=O)Nc1ccc(CN4CCCC(C(=O)NC(CO)CO)C4)cc1F)(C3)C2 (stereo partly drawn) [D7, N-(1,3-Dihydroxypropan-2-yl)-1-(4-(3-((1r,3R,5S,7r)-3,5-dimethyladamantan-1-yl)ureido)-3-fluorobenzyl)piperidine-3-carboxamide] | 7.008 |
| CCN(CC)C(=O)C1CCCN(C(=O)c2ccc(NC(=O)N[C@]34C[C@@H]5C[C@@](C)(C[C@@](C)(C5)C3)C4)c(F)c2)C1 (stereo partly drawn) [B1, 1-(4-(3-((1r,3R,5S,7S)-3,5-Dimethyladamantan-1-yl)ureido)-3-fluorobenzoyl)-N,N-diethylpiperidine-3-carboxamide] | 5.617 |
| C=C(C)C(=O)N1CCC(CC(=O)N2CCCN(C(=O)c3ccc(NC(=O)N[C@@]45C[C@@H]6C[C@@](C)(C[C@@](C)(C6)C4)C5)cc3)CC2)CC1 [H3, 1-((1r,3R,5S,7r)-3,5-Dimethyladamantan-1-yl)-3-(4-(4-(2-(1-methacryloylpiperidin-4-yl)acetyl)-1,4-diazepane-1-carbonyl)phenyl)urea] | 5.530 |
| CCN(CC)CCN1CCC(CC(=O)N2CCCN(Cc3ccc(NC(=O)N[C@@]45C[C@@H]6C[C@@](C)(C[C@@](C)(C6)C4)C5)c(F)c3)CC2)CC1 [I8, 1-(4-((4-(2-(1-(2-(Diethylamino)ethyl)piperidin-4-yl)acetyl)-1,4-diazepan-1-yl)methyl) −2-fluorophenyl)-3-((1r,3R,5S,7r)-3,5-dimethyladamantan-1-yl)urea] | 3.910 |
| C[C@]12C[C@@H]3C[C@](C)(C1)C[C@@](NC(=O)Nc1ccc(CN4CCCC(C(=O)N5CCN(CCO)CC5)C4)cc1F)(C3)C2 (stereo partly drawn) [D9, 1-((1r,3R,5S,7r)-3,5-Dimethyladamantan-1-yl)-3-(2-fluoro-4-((3-(4-(2-hydroxyethyl)piperazine-1-carbonyl)piperidin-1-yl)methyl)phenyl)urea] | 5.790 |
| C[C@]12C[C@@H]3C[C@](C)(C1)C[C@@](NC(=O)Nc1ccc(C(=O)NC4CCC(C(N)=O)CC4)cc1F)(C3)C2 (stereo partly drawn) [C6, N-(4-Carbamoylcyclohexyl)-4-(3-((1r,3R,5S,7r)-3,5-dimethyladamantan-1-yl)ureido)-3-fluorobenzamide] | 5.746 |
| CCC(C)C(=O)N1CCCN(C(=O)C2CCCN(C(=O)c3ccc(NC(=O)N[C@@]45C[C@@H]6C[C@@](C)(C[C@@](C)(C6)C4)C5)c(F)c3)C2)CC1 (stereo partly drawn) [F3, 1-((1r,3R,5S,7r)-3,5-Dimethyladamantan-1-yl)-3-(2-fluoro-4-(3-(4-(2-methylbutanoyl) −1,4-diazepane-1-carbonyl)piperidine-1-carbonyl)phenyl)urea] | 4.847 |
| C[C@]12C[C@@H]3C[C@](C)(C1)C[C@@](NC(=O)Nc1ccc(CN4CCCC(C(=O)NC(CO)(CO)CO)C4)cc1F)(C3)C2 (stereo partly drawn) [D8, N-(1,3-Dihydroxy-2-(hydroxymethyl)propan-2-yl)-1-(4-(3-((1r,3R,5S,7r)-3,5-dimethyladamantan-1-yl)ureido)-3-fluorobenzyl)piperidine-3-carboxamide] | 7.992 |
| C[C@]12C[C@@H]3C[C@](C)(C1)C[C@](NC(=O)Nc1ccc(C(=O)N4CCCC(C(=O)NCCO)C4)cc1F)(C3)C2 (stereo partly drawn) [B2, 1-(4-(3-((1r,3R,5S,7S)-3,5-dimethyladamantan-1-yl)ureido)-3-fluorobenzoyl)-N-(2-hydroxyethyl)piperidine-3-carboxamide] | 7.069 |
| CC(=O)N1CCCN(C(=O)C2CCCN(C(=O)c3ccc(NC(=O)N[C@@]45C[C@@H]6C[C@@](C)(C[C@@](C)(C6)C4)C5)c(F)c3)C2)CC1 (stereo partly drawn) [F1, 1-(4-(3-(4-Acetyl-1,4-diazepane-1-carbonyl)piperidine-1-carbonyl)-2-fluorophenyl)-3-((1r,3R,5S,7r)-3,5-dimethyladamantan-1-yl)urea] | 6.801 |
| C[C@]12C[C@@H]3C[C@](C)(C1)C[C@@](NC(=O)Nc1ccc(CN4CCCC(C(=O)N(CCO)CCO)C4)cc1F)(C3)C2 (stereo partly drawn) [D5, 1-(4-(3-((1r,3R,5S,7r)-3,5-Dimethyladamantan-1-yl)ureido)-3-fluorobenzyl)-N,N-bis(2-hydroxyethyl)piperidine-3-carboxamide] | 6.879 |
| CCC(=O)N1CCC(CC(=O)N2CCCN(C(=O)c3ccc(NC(=O)N[C@@]45C[C@@H]6C[C@@](C)(C[C@@](C)(C6)C4)C5)c(F)c3)CC2)CC1 [H1, 1-((1r,3R,5S,7r)-3,5-Dimethyladamantan-1-yl)-3-(2-fluoro-4-(4-(2-(1-propionylpiperidin-4-yl)acetyl)-1,4-diazepane-1-carbonyl)phenyl)urea] | 5.848 |
